Earlier results, collected in patent US12156879B2, “Combining BACE1 inhibitors with mGluR agonists for Alzheimer's disease therapy” (University of Connecticut, priority 2019, dated 2024).

Tests used:
[1] = test system: hippocampal LTP; conditions: mice treated with the BACE1 inhibitor; cited from earlier work
[2] = test system: layer V pyramidal neurons; conditions: mice treated with the BACE1 inhibitor; cited from earlier work

Compound | hippocampal LTP [1] | spine formation in layer V pyramidal neurons [2]
CC#Cc1cncc(-c2cc(Cl)c(C3(C)CC(=O)N(C)C(=N)N3)s2)c1 (stereo not shown) [SCH1682496] | impaired | reduced
C[C@@]1(c2cc(-c3cncnc3)c(F)cc2F)CCSC(N)=N1 [LY2811376] | impaired | reduced
